Molecules are shown by their SMILES.

The first assay relates to sAPPβ release in SH-SY5Y cells. In words: sAPPβ release assay. Format: cell-based. Conditions: Homo sapiens, SH-SY5Y, 17 h, compounds incubated 17 h, MSD detection. The procedure:
Thaw cells and seed at a conc. of around 10000 cells/well in DMEM/F-12 with Glutamax, 10% FCS and 1% non-essential amino acids to a 384-well tissue culture treated plate, 100 μL cell susp/well. […] The cell medium was removed, followed by addition of 30 μL compound diluted in DMEM/F-12 with Glutamax, 10% FCS, 1% non-essential amino acids and 1% PeSt to a final conc. of 1% DMSO. The compounds were incubated with the cells for 17 h (overnight) at 37° C., 5% CO2. Meso Scale Discovery (MSD) plates were used for the detection of sAPPβ release. MSD sAPPβ plates were blocked in 1% BSA in Tris wash buffer (40 μL/well) for 1 h on shake at r.t. and washed 1 time in Tris wash buffer (40 μL/well). 20 μL of medium was transferred to the pre-blocked and washed MSD sAPPβ microplates, and the cell plates were further used in an ATP assay to measure cytotoxicity. The MSD plates were incubated with shaking at r.t. for 2 h and the media discarded. 10 μL detection antibody was added (1 nM) per well followed by incubation with shaking at r.t. for 2 h and then discarded. 40 μL Read Buffer was added per well and the plates were read in a SECTOR Imager.
Consider `CCc1cc(C#N)cc(-c2ccc3c(c2)C2(N=C(C)C(N)=N2)[C@]2(CC[C@H](OC)CC2)C3)c1` (stereo partly drawn) [Example 95, 3-[(1r,4r)-4″-Amino-4-methoxy-5″-methyl-3′H-dispiro[cyclohexane-1,2′-indene-1′,2″-imidazol]-6′-yl]-5-ethylbenzonitrile], for which inhibition was half-maximal at 0.0036 µM (IC50). As to `CCC1=NC2(N=C1N)c1cc(-c3cccc(C#N)c3)ccc1C[C@]21CC[C@@H](OC)CC1` (stereo partly drawn) [Example 70, 3-[(1r,4r)-4″-amino-5″-ethyl-4-methoxy-3′H-dispiro[cyclohexane-1,2′-indene-1′,2″-imidazol]-6′-yl]benzonitrile], the half-inhibitory concentration (IC50) (as a rule, the point on the concentration scale where inhibition reaches its midpoint) is 0.013 µM. On the same count and under the same terms, then `CO[C@H]1CC[C@]2(CC1)Cc1ccc(-c3cncc(C(F)(F)F)c3)cc1[C@@]21N=C(C)C(N)=N1` [Example 84, (1r,1′R,4R)-4-Methoxy-5″-methyl-6′-[5-(trifluoromethyl)pyridin-3-yl]-3′H-dispiro[cyclohexane-1,2′-indene-1′,2″-imidazol]-4″-amine], with 0.00099 µM; and `CC1=NC2(N=C1N)c1cc(Br)ccc1CC21CCC(F)(F)CC1` (stereo not drawn) [Example 27, 6′-Bromo-4,4-difluoro-5″-methyl-3′H-dispiro[cyclohexane-1,2′-indene-1′,2″-imidazol]-4″-amine], with 0.399 µM; and `CC1=NC2(CCOc3ccc(NC(=O)c4ncc(Cl)cc4Cl)cc32)N=C1N` (stereo not drawn) [Example 13i, N-(4′-Amino-5′-methylspiro[chroman-4,2′-imidazole]-6-yl)-3,5-dichloropicolinamide], with 0.16 µM. For `CO[C@H]1CC[C@]2(CC1)Cc1ccc(-c3cc(C#N)cc(C(F)(F)F)c3)cc1[C@@]21N=C(C)C(N)=N1` [Example 85], the concentration for half-maximal inhibition (IC50) was determined as 0.0008 µM. As to `[2H]C([2H])([2H])O[C@H]1CC[C@]2(CC1)Cc1ccc(Br)cc1C21N=C(C)C(N)=N1` (stereo partly drawn) [Example 117, (1r,4r)-6′-Bromo-5″-methyl-4-[(^2H3)methyloxy]-3′H-dispiro[cyclohexane-1,2′-indene-1′,2″-imidazol]-4″-amine], the half-maximal inhibitory concentration (IC50) was 0.047 µM. The compound `COCc1cc(F)cc(-c2ccc3c(c2)C2(N=C(C)C(N)=N2)[C@]2(CC[C@H](OC)CC2)C3)c1` (stereo partly drawn) [Example 81, (1r,4r)-6′-[3-Fluoro-5-(methoxymethyl)phenyl]-4-methoxy-5″-methyl-3′H-dispiro[cyclohexane-1,2′-indene-1′,2″-imidazol]-4″-amine] showed a 50% inhibitory concentration (IC50) of 0.02 µM.

For the compound `CC1=NC2(CCOc3ccc(NC(=O)c4ccc(Cl)cn4)cc32)N=C1N` (stereo not drawn) [Example 13a, N-(4′-Amino-5′-methylspiro[chroman-4,2′-imidazole]-6-yl)-5-chloropicolinamide], the 50% inhibitory concentration (IC50) was determined as 0.501 µM. The same measure, in the same setting: the figure for `CCO[C@H]1CC[C@]2(CC1)Cc1ccc(Br)cc1C21N=C(C)C(N)=N1` (stereo partly drawn) [Example 130, (1r,4r)-6′-Bromo-4-ethoxy-5″-methyl-3′H-dispiro[cyclohexane-1,2′-indene-1′,2″-imidazol]-4″-amine] is 0.148 µM. `[2H]C([2H])([2H])O[C@H]1CC[C@]2(CC1)Cc1ccc(-c3cc(F)cc(C#N)c3)cc1C21N=C(C)C(N)=N1` (stereo partly drawn) [Example 118, 3-{(1r,4r)-4″-Amino-5″-methyl-4-[(^2H3)methyloxy]-3′H-dispiro[cyclohexane-1,2′-indene-1′,2″-imidazol]-6′-yl}-5-fluorobenzonitrile] registered a concentration for half-maximal inhibition (IC50) of 0.0028 µM. Take `CO[C@H]1CC[C@]2(CC1)Cc1ccc(OCC3CCC3)cc1C21N=C(C)C(N)=N1` (stereo partly drawn) [Example 126, (1r,4r)-6′-(Cyclobutylmethoxy)-4-methoxy-5″-methyl-3′H-dispiro[cyclohexane-1,2′-indene-1′,2″-imidazol]-4″-amine]: the IC50 was 0.0014 µM.

The same assay, now with this note: Homo sapiens, compounds incubated 17 h, MSD detection.
Turning to `CO[C@H]1CC[C@]2(CC1)Cc1ccc(NC(=O)c3ccc(F)cn3)cc1C21N=C(C)C(N)=N1` (stereo partly drawn) [Example 20x, N-[(1r,4r)-4″-Amino-4-methoxy-5″-methyl-3′H-dispiro[cyclohexane-1,2′-indene-1′,2″-imidazol]-6′-yl]-5-fluoropyridine-2-carboxamide], half-maximal inhibition (IC50) was put at 0.029 µM.

Compound `CC1=NC2(N=C1N)c1cc(NC(=O)c3ccc(Cl)cn3)ccc1CC21CCC(F)(F)CC1` (stereo not drawn) [Example 28d, N-(4″-Amino-4,4-difluoro-5″-methyl-3′H-dispiro[cyclohexane-1,2′-indene-1′,2″-imidazol]-6′-yl)-5-chloropyridine-2-carboxamide] had a half-inhibitory concentration (IC50) of 0.089 µM. Still for that read-out and setting: the figure for `COC1CCC2(CC1)Oc1ccc(Br)cc1C21N=C(C)C(N)=N1` (stereo not drawn) [Example 29, 5′-bromo-4-methoxy-5″-methyldispiro[cyclohexane-1,2′-[1]benzofuran-3′,2″-imidazol]-4″-amine] is 0.848 µM; for `CC1=NC2(N=C1N)c1cc(Br)ccc1CC21CCC(C(F)(F)F)CC1` (stereo not drawn) [Example 124, 6′-Bromo-5″-methyl-4-(trifluoromethyl)-3′H-dispiro[cyclohexane-1,2′-indene-1′,2″-imidazol]-4″-amine] it is 6.95 µM. Turning to `CC#Cc1ccnc(-c2ccc3c(c2)C2(N=C(C)C(N)=N2)[C@]2(CC[C@H](OC)CC2)C3)c1` (stereo partly drawn) [Example 20b, (1r,4r)-4-Methoxy-5″-methyl-6′-[4-(prop-1-yn-1-yl)pyridin-2-yl]-3′H-dispiro[cyclohexane-1,2′-indene-1′,2″-imidazol]-4″-amine], the 50% inhibitory concentration (IC50) worked out at 0.00078 µM. Regarding `CO[C@H]1CC[C@]2(CC1)Cc1ccc(NC(=O)c3oc4cc(Cl)ccc4c3C)cc1C21N=C(C)C(N)=N1` (stereo partly drawn) [Example 20n, N-[(1r,4r)-4″-Amino-4-methoxy-5″-methyl-3′H-dispiro[cyclohexane-1,2′-indene-1′,2″-imidazol]-6′-yl]-6-chloro-3-methyl-1-benzofuran-2-carboxamide], the IC50 came out at 0.0037 µM. In turn, `COCc1cc(-c2ccc3c(c2)C2(N=C(C)C(N)=N2)[C@]2(CC[C@H](OC)CC2)C3)cc(C#N)c1F` (stereo partly drawn) [Example 127, 5-[(1r,4r)-4″-Amino-4-methoxy-5″-methyl-3′H-dispiro[cyclohexane-1,2′-indene-1′,2″-imidazol]-6′-yl]-2-fluoro-3-(methoxymethyl)benzonitrile] displayed an IC50 of 0.0051 µM. Still for that read-out and setting: the figure for `CO[C@H]1CC[C@]2(CC1)Cc1ccc(-c3cc(F)ccc3F)cc1[C@@]21N=C(C)C(N)=N1` [Example 99, (1r,1′R,4R)-6′-(2,5-Difluorophenyl)-4-methoxy-5′-methyl-3′H-dispiro[cyclohexane-1,2′-indene-1′,2″-imidazol]-4″-amine] is 0.0057 µM; for `CC1=NC2(CCOc3ccc(-c4cc(Cl)cc(Cl)c4)cc32)N=C1N` (stereo not drawn) [Example 1, 6-(3,5-Dichlorophenyl)-5′-methylspiro[chroman-4,2′-imidazol]-4′-amine] it is 0.587 µM. Same read-out and setting: then `COc1cc(C#N)cc(-c2ccc3c(c2)[C@@]2(N=C(C)C(N)=N2)[C@]2(CC[C@H](OC(F)F)CC2)C3)c1` (racemic) [Example 106, 3-[(1r,4r)-4″-Amino-4-(difluoromethoxy)-5″-methyl-3′H-dispiro[cyclohexane-1,2′-indene-1′,2″-imidazol]-6′-yl]-5-methoxybenzonitrile], with 0.0011 µM. In turn, `CCC1=NC2(N=C1N)c1cc(Br)ccc1C[C@]21CC[C@@H](OC)CC1` (stereo partly drawn) [Example 64, (1r,4r)-6′-Bromo-5″-ethyl-4-methoxy-3′H-dispiro[cyclohexane-1,2′-indene-1′,2″-imidazol]-4″-amine] gave a concentration for half-maximal inhibition (IC50) of 0.125 µM. The compound `CO[C@H]1CC[C@]2(CC1)Cc1ccc(-c3cncc(C)c3)cc1[C@@]21N=C(C)C(N)=N1` [Example 83, (1r,1′R,4R)-4-Methoxy-5″-methyl-6′-(5-methylpyridin-3-yl)-3′H-dispiro[cyclohexane-1,2′-indene-1′,2″-imidazol]-4″-amine] returned an IC50 of 0.0029 µM. Regarding `CO[C@H]1CC[C@]2(CC1)Cc1ccc(-c3cc(C#N)cc(C#N)c3)cc1C21N=C(C)C(N)=N1` (stereo partly drawn) [Example 20c, 5-[(1r,4r)-4″-Amino-4-methoxy-5″-methyl-3′H-dispiro[cyclohexane-1,2′-indene-1′,2″-imidazol]-6′-yl]benzene-1,3-dicarbonitrile], half-maximal inhibition (IC50) was put at 0.0017 µM. Same read-out and setting: then `CO[C@H]1CC[C@]2(CC1)Cc1ccc(-c3cncc(F)c3)cc1C21N=C(C)C(N)=N1` (stereo partly drawn) [Example 20f, (1r,4r)-6′-(5-Fluoropyridin-3-yl)-4-methoxy-5″-methyl-3′H-dispiro[cyclohexane-1,2′-indene-1′,2″-imidazol]-4″-amine], with 0.0033 µM. Take `CC1=NC2(N=C1N)c1cc(-c3cc(F)cc(C#N)c3)ccc1CC21CCC(=O)CC1` (stereo not drawn) [Example 115, 3-(4″-Amino-5″-methyl-4-oxodispiro[cyclohexane-1,2′-[1H]indene-1′(3′H),2″-[2H]imidazol]-6′-yl)-5-fluorobenzonitrile]: the midpoint of inhibition, the IC50, lay at 0.293 µM.

Regarding `CC1=NC2(N=C1N)c1cc(Br)ccc1CC21CCC(OC(F)F)CC1` (stereo not drawn) [Example 15, 6′-Bromo-4-(difluoromethoxy)-5″-methyl-3′H-dispiro[cyclohexane-1,2′-indene-1′,2″-imidazol]-4″-amine], half-maximal inhibition (IC50) required 0.046 µM. `CC#CCOc1ccc(C(=O)Nc2ccc3c(c2)C2(CCO3)N=C(C)C(N)=N2)nc1` (stereo not drawn) [Example 13d, N-(4′-amino-5′-methylspiro[chroman-4,2′-imidazole]-6-yl)-5-(but-2-ynyloxy)picolinamide] displayed an IC50 of 0.239 µM.

In the case of `CC#Cc1cncc(-c2ccc3c(c2)[C@@]2(N=C(C)C(N)=N2)[C@]2(CC[C@H](O)CC2)C3)c1` [Example 73, (1r,1′R,4R)-4″-Amino-5″-methyl-6′-[5-(prop-1-yn-1-yl)pyridin-3-yl]-3′H-dispiro[cyclohexane-1,2′-indene-1′,2″-imidazol]-4-ol], inhibition was half-maximal at 0.001 µM (IC50).
